Data on one compound can be found in ChEMBL document CHEMBL4842313, “Combating multi-drug resistant malaria parasite by inhibiting falcipain-2 and heme-polymerization: Artemisinin-peptidyl vinyl phosphonate hybrid molecules as new antimalarials” (Eur J Med Chem, 2021).

For data set [1], the system named is Plasmodium falciparum. The data set can be described thus: Antimalarial activity against laboratory adapted artemisinin-resistant Plasmodium falciparum RT4974 assessed as inhibition of the survival of ring-stage parasite measured after 66 hrs by ring survival assay. The format is functional, organism-based.
Data set [2] relates to Plasmodium berghei. Briefly: Antimalarial activity against blood stage of Plasmodium berghei infected in BALB/c mouse assessed as mouse survival time at 12.5 mg/kg, ip administered once daily for 4 consecutive days (reference value: 12 to 15 days). It is filed as functional. As to conditions: time 4 day.
Data set [3] can be described thus: Drug degradation in human plasma. It is filed as ADME, cell-free.
Another data set relates to Cytochrome P450. The data set can be described thus: Inhibition of CYP450 (unknown origin). It is filed as ADME, protein assay. As to conditions: human.
Data set [4] relates to Plasmodium berghei. The data set can be described thus: Antimalarial activity against blood stage of Plasmodium berghei infected in BALB/c mouse assessed as parasite clearance at 12.5 mg/kg, ip administered once daily for 4 consecutive days measured on day 10 by Giemsa staining based assay (reference value: 0%). As to conditions: time 10 day. It is filed as functional.
For data set [5], the system named is Plasmodium falciparum. Briefly: Antimalarial activity against asexual blood stage of Plasmodium falciparum assessed as darkly stained dead parasites at EC50 observed at 60 hrs post invasion. The format is functional, organism-based.
Data set [6] has as its system Plasmodium falciparum. The data set can be described thus: Antimalarial activity against Plasmodium falciparum 3D7 assessed as parasite growth inhibition incubated for 48 hrs by SYBR green DNA fluorescent dye-binding assay. The note with it: 3D7, 48 h. The format is functional, organism-based.
In data set [7] the test system is Plasmodium falciparum. The data set can be described thus: Antimalarial activity against chloroquine, pyrimethamine and mefloquine-resistant Plasmodium falciparum Dd2 assessed as parasite growth inhibition incubated for 48 hrs by SYBR green DNA fluorescent dye-binding assay. The format is functional, organism-based. The note with it: Dd2, 48 h.
For data set [8], the system named is Plasmodium berghei. Briefly: Antimalarial activity against blood stage of Plasmodium berghei infected in BALB/c mouse assessed as suppression of parasite growth at 12.5 mg/kg, ip administered once daily for 4 consecutive days measured on day 5 by Giemsa staining based assay. The note with it: time 5.0 day. The format is functional, organism-based.
Data set [9] relates to Plasmodium falciparum. The data set can be described thus: Antimalarial activity against asexual blood stage of Plasmodium falciparum assessed as inhibition of mature schizonts development at EC50 observed at 48 hrs post invasion. It is filed as functional, organism-based.
Data set [10] has as its target T1, Heme ligase (Plasmodium falciparum (isolate 3D7)) (UniProt Q8IL04).
T1 sequence (whole entry): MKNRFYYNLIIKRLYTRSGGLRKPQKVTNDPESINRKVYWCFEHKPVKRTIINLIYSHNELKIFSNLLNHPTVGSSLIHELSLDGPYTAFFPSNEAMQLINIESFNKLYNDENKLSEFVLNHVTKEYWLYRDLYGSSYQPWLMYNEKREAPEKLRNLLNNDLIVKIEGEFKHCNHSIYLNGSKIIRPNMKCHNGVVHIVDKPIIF
Briefly: Inhibition of recombinant Plasmodium falciparum heme detoxification protein expressed in Escherichia coli M15 assessed as reduction in hemozoin formation using heme as substrate measured after 3 hrs relative to control. As to conditions: concentration not given here.

Data set [11] deals with Plasmodium falciparum. The data set can be described thus: Antimalarial activity against asexual blood stage of Plasmodium falciparum assessed as abnormalities in food vacuole observed upto 60 hrs post invasion. It is filed as functional, organism-based. As to conditions: time hrs <=60.
The next data set has as its system A549. The data set can be described thus: Cytotoxicity against human A549 cells assessed as reduction in cell viability measured after 24 hrs by WST-1 assay. The format is cell-based. The note with it: A549, 24 h.
Data set [12] deals with Plasmodium falciparum. The data set can be described thus: Antimalarial activity against chloroquine and pyrimethamine-resistant Plasmodium falciparum 7G8 assessed as parasite growth inhibition incubated for 48 hrs by SYBR green DNA fluorescent dye-binding assay. It is filed as functional, organism-based. The note with it: 7G8, 48 h.
For data set [13], the system named is Plasmodium berghei. The data set can be described thus: Antimalarial activity against blood stage of Plasmodium berghei infected in BALB/c mouse assessed as suppression of parasite growth at 12.5 mg/kg, ip administered once daily for 4 consecutive days measured on day 6 by Giemsa staining based assay. The format is functional, organism-based. The note with it: time 6.0 day.

Activity calls are given as the source filed them. The rule behind the calls is not given here. Where only a bound is given, the exact number is not on record here.

The EC50 is the concentration giving half of the maximal effect. One may read the inhibition as the relative decrease from the control value, in per cent. As to `CCOP(=O)(/C=C/C(NC(=O)[C@H](Cc1ccccc1)NC(=O)[C@H](CO[C@H]1O[C@@H]2O[C@@]3(C)CC[C@H]4[C@H](C)CC[C@@H]([C@H]1C)[C@@]24OO3)NC(=O)OCc1ccccc1)c1ccccc1)OCC` (stereo not given in full), the outcome with Plasmodium falciparum [1], in the data set on Plasmodium falciparum [5], with Plasmodium falciparum [9], in the data set on Plasmodium falciparum [11] and in the data set with Plasmodium berghei [13] was Active. Also, the Survival with Plasmodium berghei [2] was greater than 60 days. Besides, the Stabilty result in [3] was “Unstable”. Further, the “inhibition (INH)” value in the data set on Cytochrome P450 is recorded as “Active”. In addition, the Activity in the data set with Plasmodium berghei [4] was 80%. The EC50 in the data set on Plasmodium falciparum [6] amounted to 2.7 nM; in the data set on Plasmodium falciparum [7], 1.9 nM; with A549, 14600 nM; with Plasmodium falciparum [12], 0.47 nM. Also, the outcome in the data set on Plasmodium berghei [8] was inactive. The inhibition in data set [10] was determined as 80%.
